Data reported in US6825230B2, “Spiro and dispiro 1,2,4-trixolane antimalarials” (Medicines for Malaria Venture MMV, priority 2002, dated 2004).
≈ marks a conversion by molar mass, not a printed value. Like-named read-outs stand apart in the source and are kept apart here.

What was measured:
[1] = system: chloroquine-resistant K1 strain of P. falciparum; assay: In vitro antimalarial semiautomated microdilution assay ([3H]-hypoxanthine incorporation), K1 strain; type: cell-based, Plasmodium falciparum; conditions: Plasmodium falciparum
Description: (§1) Various OZ compounds were tested by the semiautomated microdilution assay against intraerythrocytic forms of Plasmodium falciparum derived from asynchronous stock cultures.
(§2) Fifty percent inhibitory concentration (IC50) were estimated by Logit regression analysis.

[2] = system: chloroquine-sensitive NF54 strain of P. falciparum; assay: In vitro antimalarial semiautomated microdilution assay ([3H]-hypoxanthine incorporation), NF54 strain; type: cell-based, Plasmodium falciparum; conditions: Plasmodium falciparum
Description: as §1, §2

[3] = system: ANKA strain of P. berghei; assay: Single dose STI in vivo screen in infected mice; design: species or system Plasmodium berghei; conditions: for Survival (days) 10 mg/kg po: single 10 mg/kg po in 3% ethanol and 7% Tween 80; for Survival (days) 10 mg/kg po / Survival (days) 10 mg/kg SSV po / Survival (days) 10 mg/kg sc: untreated 6-7 days; for Activity (%) 10 mg/kg po: single 10 mg/kg po in 3% ethanol and 7% Tween 80 on day 1 post-infection; for Activity (%) 10 mg/kg po / Activity (%) 10 mg/kg SSV po / Activity (%) 10 mg/kg sc / Activity (%) 3 mg/kg SSV po: percent reduction in parasitemia on day 3; for Survival (days) 10 mg/kg SSV po: single 10 mg/kg po in SSV; for Activity (%) 10 mg/kg SSV po: single 10 mg/kg po in standard suspending vehicle (SSV) on day 1 post-infection; for Survival (days) 10 mg/kg sc: single 10 mg/kg sc in 3% ethanol and 7% Tween 80; for Activity (%) 10 mg/kg sc: single 10 mg/kg sc in 3% ethanol and 7% Tween 80 on day 1 post-infection; for Survival (days) 3 mg/kg SSV po / Activity (%) 3 mg/kg SSV po: single 3 mg/kg po in SSV
Description: In the single dose STI in vivo screen, Moro SPF or NMRI mice infected with the ANKA strain of P. berghei (groups of three mice) were treated on day one post-infection with trioxolanes dissolved or suspended in 3% ethanol and 7% Tween 80. […] SSV consists of 0.5% w/v CMC, 0.5% v/v benzyl alcohol, 0.4% v/v Tween 80, and 0.9% w/v sodium chloride in water. Antimalarial activity was measured by percent reduction in parasitemia on day three post-infection and survival times compared to an untreated control group. Survival to day 30 post-infection is considered to be a cure. […] Other factors influencing antimalarial activity include the stability of carbon radicals formed by β-scission subsequent to the initial electron transfer to the peroxide bond and the influence of steric effects remote from the peroxide bond on the interactions between carbon radicals and potential drug targets.
Moro NMRI male mice (Fu Albino specific pathogen free) weighing 18±2 g were infected intravenously (i.v.) with 2×10^7 P. berghei ANKA strain-infected erythrocytes from donor mice on day 0 of the experiment. From donor mice with circa 30% parasitemia, heparinized blood was taken and diluted in physiological saline to 10^8 parasitized erythrocytes per ml. An aliquot (0.2 ml) of this suspension was injected i.v. into experimental and control groups of mice. […] Throughout the experiments, mice were kept in groups of three or five animals in Makrolon type II cages in an air-conditioned animal room at 22 to 23° C.
They were administered per os (p.o.) in a total volume of 0.01 ml per gram of mouse. The activity of the compound was determined by a variety of methods outlined in subsequent sections. Survival time was also recorded, and survival to day 30 post-infection was considered to be a cure.

[4] = K1, 72 h, read-out: IC50 (ng/ml) K1, chloroquine-resistant K1 strain, 72 h incubation
[5] = NF54, 72 h, read-out: IC50 (ng/ml) NF54, chloroquine-sensitive NF54 strain, 72 h incubation
[6] = chloroquine-resistant K1 strain, 72 h incubation, read-out: IC50 (ng/ml) K1

Row | SMILES | IC50 [1, 4] [ng/mL] | IC50 [2, 5] [ng/mL] | Survival (days) 10 mg/kg SSV po [3] | Activity (%) 10 mg/kg SSV po [3] [%] | Survival (days) 3 mg/kg SSV po [3] | Activity (%) 3 mg/kg SSV po [3] [%] | further results
1 | CC1(C)C2CCC1(CS(=O)(=O)N1CCC3(CC1)OOC1(O3)C3CC4CC(C3)CC1C4)C(=O)C2 (stereo not drawn) [OZ91, Adamantane-2-spiro-3′-8′-[(1′S)-10′-camphorsulfonyl]-1′,2′,4′-trioxa-8′-azaspiro[4.5]decane] | 1.4 (≈ 2.92 nM) | 0.42 (≈ 0.876 nM) | 6.0 days | 0 |  |  | Survival (days) 10 mg/kg po [3]: 5.7 days; Activity (%) 10 mg/kg po [3]: 20%; Survival (days) 10 mg/kg sc [3]: 7.3 days; Activity (%) 10 mg/kg sc [3]: 85%
2 | CCCCS(=O)(=O)N1CCC2(CC1)OOC1(O2)C2CC3CC(C2)CC1C3 (stereo not drawn) [OZ92, Adamantane-2-spiro-3′-8′-(1′-butanesulfonyl)-1′,2′,4′-trioxa-8′-azaspiro[4.5]decane] | 1.6 (≈ 4.15 nM) | 0.4 (≈ 1.04 nM) | 6.3 days | 35 |  |  | Survival (days) 10 mg/kg po [3]: 6.7 days; Activity (%) 10 mg/kg po [3]: 81%; Survival (days) 10 mg/kg sc [3]: 10.0 days; Activity (%) 10 mg/kg sc [3]: 99.98%
3 | CN(C)C(=O)N1CCC2(CC1)OOC1(O2)C2CC3CC(C2)CC1C3 (stereo not drawn) [OZ133, Adamantane-2-spiro-3′-8′-[(dimethylamino)carbonyl]-1′,2′,4′-trioxa-8′-azaspiro[4.5]decane] | 0.7 (≈ 2.08 nM) |  | 7.3 days | 97 |  |  | Survival (days) 10 mg/kg po [3]: 7.0 days; Activity (%) 10 mg/kg po [3]: 94%; Survival (days) 10 mg/kg sc [3]: 7.0 days; Activity (%) 10 mg/kg sc [3]: 72%
4 | N[C@H]1CC[C@]2(CC1)OOC1(O2)C2CC3CC(C2)CC1C3 (stereo partly drawn) [OZ137] |  | 18 (≈ 64.4 nM) | 6.3 days | 6 |  |  | Survival (days) 10 mg/kg po [3]: 5.7 days; Activity (%) 10 mg/kg po [3]: 0%; Survival (days) 10 mg/kg sc [3]: 7.0 days; Activity (%) 10 mg/kg sc [3]: 61%
5 | C1CCC(NC2CCC3(CC2)OOC2(O3)C3CC4CC(C3)CC2C4)CC1 (stereo not drawn) [OZ162] | 0.5 (≈ 1.38 nM) | 0.71 (≈ 1.96 nM) |  |  |  |  | 
6 | CC(C)N(C(=O)N1CCC2(CC1)OOC1(O2)C2CC3CC(C2)CC1C3)C(C)C (stereo not drawn) [OZ194, Adamantane-2-spiro-3′-8′-[(diisopropylamino)carbonyl]-1′,2′,4′-trioxa-8′-azaspiro[4.5]decane] |  | 6.6 (≈ 16.8 nM) | 8.0 days | 73 |  |  | Survival (days) 10 mg/kg po [3]: 8.3 days; Activity (%) 10 mg/kg po [3]: 87%; Survival (days) 10 mg/kg sc [3]: 20.3 days; Activity (%) 10 mg/kg sc [3]: 99.95%
7 | CC(C)(C)CC(=O)N[C@H]1CC[C@]2(CC1)OOC1(O2)C2CC3CC(C2)CC1C3 (stereo partly drawn) [OZ195] | 2.2 (≈ 5.83 nM) | 3.7 (≈ 9.8 nM) |  |  |  |  | 
8 | O=C1CCC(=O)N1C[C@H]1CC[C@]2(CC1)OOC1(O2)C2CC3CC(C2)CC1C3 (stereo partly drawn) [OZ197] | 1 (≈ 2.66 nM) | 2 (≈ 5.33 nM) |  |  |  |  | 
9 | NCC[C@H]1CC[C@]2(CC1)OOC1(O2)C2CC3CC(C2)CC1C3 (stereo partly drawn) [OZ229] | 0.24 (≈ 0.781 nM) | 0.23 (≈ 0.748 nM) |  |  |  |  | 
10 | O=C(NC[C@H]1CC[C@]2(CC1)OO[C@]1(O2)C2CC3CC(C2)CC1C3)c1cccnc1 [OZ273] |  |  | 11.7 days | 99.58 | 7.2 days | 64 | IC50 [1, 6]: 0.97 ng/mL (≈ 2.43 nM)
11 | CCOC(=O)NC[C@H]1CC[C@]2(CC1)OO[C@]1(O2)C2CC3CC(C2)CC1C3 [OZ289] |  |  | 13.4 days | 99.94 | 7.4 days | 92 | IC50 ([2]; chloroquine-sensitive NF54 strain, 72 h incubation, read-out: IC50 (ng/ml) NF54): 0.56 ng/mL (≈ 1.53 nM)
12 | NC(=O)CCNC[C@H]1CC[C@]2(CC1)OO[C@]1(O2)C2CC3CC(C2)CC1C3 [OZ319] | 0.41 (≈ 1.12 nM) | 0.91 (≈ 2.5 nM) |  |  |  |  | 
13 | O=CNCC(=O)NC[C@H]1CC[C@]2(CC1)OO[C@]1(O2)C2CC3CC(C2)CC1C3 [OZ322] |  |  | 10.0 days | 98 | 9.4 days | 61 | IC50 [1, 6]: 0.9 ng/mL (≈ 2.38 nM)
14 | c1cnc(OC[C@H]2CC[C@]3(CC2)OO[C@]2(O3)C3CC4CC(C3)CC2C4)nc1 [OZ325] |  |  | 8.8 days |  | 6.2 days | 30 | 
15 | c1cnc(NC[C@H]2CC[C@]3(CC2)OO[C@]2(O3)C3CC4CC(C3)CC2C4)nc1 [OZ326] |  |  | 7.4 days | 80 | 6.0 days | 7 | 
16 | NC(=O)[C@@H]1CCCN1C[C@H]1CC[C@]2(CC1)OO[C@]1(O2)C2CC3CC(C2)CC1C3 [OZ327] |  |  | 9.8 days | 97 | 7.0 days | 72 | 
17 | [O-][n+]1ccccc1SC[C@H]1CC[C@]2(CC1)OO[C@]1(O2)C2CC3CC(C2)CC1C3 [OZ328] |  |  | 8.6 days | 99.77 | 7.6 days | 75 | 
18 | Nc1nccnc1C(=O)NC[C@H]1CC[C@]2(CC1)OO[C@]1(O2)C2CC3CC(C2)CC1C3 [OZ330] |  |  | 12.2 days |  | 7.2 days | 82 | 
19 | Cn1nnnc1SC[C@H]1CC[C@]2(CC1)OO[C@]1(O2)C2CC3CC(C2)CC1C3 [OZ331] |  |  | 9.0 days |  | 7.0 days | 66 | 
20 | Cn1nnnc1S(=O)(=O)C[C@H]1CC[C@]2(CC1)OO[C@]1(O2)C2CC3CC(C2)CC1C3 [OZ332] |  |  | 6.0/6.0 days | 8 | 6.0/6.0 days | 0 | 
21 | C[C@H](N)C(=O)NC[C@H]1CC[C@]2(CC1)OO[C@]1(O2)C2CC3CC(C2)CC1C3 [OZ335] |  |  | 9.2 days |  | 10.0 days | 97 | 
22 | NCCC(=O)NC[C@H]1CC[C@]2(CC1)OO[C@]1(O2)C2CC3CC(C2)CC1C3 [OZ336] |  |  | 9.2 days |  | 9.6 days | 98 | 
23 | O=C(NC[C@H]1CC[C@]2(CC1)OO[C@]1(O2)C2CC3CC(C2)CC1C3)[C@@H]1CCCN1 [OZ337] |  |  | 8.6 days |  |  | 97 | 
24 | N[C@H]1CCN(C(=O)C[C@H]2CC[C@]3(CC2)OO[C@]2(O3)C3CC4CC(C3)CC2C4)C1 [OZ338] |  |  | 9.8 days |  | 8.0 days |  | 
25 | N=C(N)NC(=O)C[C@H]1CC[C@]2(CC1)OO[C@]1(O2)C2CC3CC(C2)CC1C3 [OZ341] |  |  | 8.0 days | 97 | 7.0 days | 32 | 
26 | O=C(C[C@H]1CC[C@]2(CC1)OO[C@]1(O2)C2CC3CC(C2)CC1C3)N1CCS(=O)(=O)CC1 [OZ342] |  |  | 6.8 days | 27 | 6.4 days | 0 | 
